Reference: patent publication US5491216A, “Tri-arginine insulins” (Eli Lilly and Company, priority 1993, dated 1996)

What was measured:
[1] = standardized value used in the formula for test solutions; cited from earlier work
[2] = system: New Zealand White rabbits; experiment: Hypoglycemic activity after subcutaneous injection in fasted rabbits (blood glucose, percent of original); format: in vivo, rabbit; conditions: for Percent of Original Blood Glucose: added zinc 0 mg/ml, 0.2 U/kg s.c., 40 U/ml, n = 10 rabbits
Procedure: Solutions were prepared containing various amounts of zinc (0-2.4 mg/ml) in the form of zinc chloride. Glacial acetic acid was used to solublize each of the solutions at a final pH range of pH 4-6.
New Zealand White rabbits, mostly female, all weighing 0 2.7-4 kg, 0.5-4 years of age and fasted 16 hours prior to administration of sample were used for testing.
At various times, 100 μl volumes of blood were obtained from the marginal ear veins, mixed with 900 μl volumes of anticoagulant (EDTA-sodium fluoride) and analyzed for glucose content. The glucose values were standardized to reflect percent of original blood glucose measured prior to sample injection.

Row | Substance | standardized value (potency per mg protein) [1] [U/mg] | Percent of Original Blood Glucose ([2]; 1 hour after injection) [%] | Percent of Original Blood Glucose ([2]; 2 hours after injection) [%] | Percent of Original Blood Glucose ([2]; 4 hours after injection) [%] | Percent of Original Blood Glucose ([2]; 6 hours after injection) [%] | hypoglycemic activity ([2]; result in words, animal model)
1 | human insulin: natural human insulin, reference for biopotency | 28.85 | – | – | – | – | –
2 | Des(64) HPI: split(64) proinsulin wherein Lys-64 is removed | – | 63.1 | 70.5 | 90.6 | 90.0 | hypoglycemic activity of its own
